From patent publication US20170010272A1, “RAPID PHENOTYPE TESTS FOR ANTI[…] SENSITIVITY AND RESISTANCE” (STC, UNM, priority 2014, published 2017)
Where two headings read alike, the source gives them in different places.

Tests used:
[1] = target: deazaflavin (F420) dependent nitroreductase (Ddn) (Mycobacterium tuberculosis, UniProt P9WP15); assay: activation of nitroimidazoles to NO• by Ddn; type: biochemical; conditions: for Ddn mediated production of ^15NO•: FIG. 4; for activation to NO• by Ddn: FIG. 2
[2] = oral pyrazinamide, metabolite pyrazinoic acid formed by host hepatic microsomal deamidase, cited from earlier work

deazaflavin (F420) dependent nitroreductase (Ddn), sequence (P9WP15 whole entry): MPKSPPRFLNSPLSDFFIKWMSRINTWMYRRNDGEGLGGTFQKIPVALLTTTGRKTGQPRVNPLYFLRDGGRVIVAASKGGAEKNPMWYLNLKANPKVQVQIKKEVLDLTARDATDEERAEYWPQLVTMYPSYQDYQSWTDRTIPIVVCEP

Row | Compound | Ddn mediated production of ^15NO• [1] | activation to NO• by Ddn [1] | further results
1 | O=[15N+]([O-])c1cn2c(n1)OC[C@@H](OCc1ccc(OC(F)(F)F)cc1)C2 [^15N-nitro-PA824] | Ddn mediated production of ^15NO• | – | –
2 | O=[N+]([O-])c1cn2c(n1)OC[C@@H](OCc1ccc(OC(F)(F)F)cc1)C2 [PA824] | – | activation of PA824 and OPC67683 to NO• by Ddn | –
3 | NC(=O)c1cnccn1 [PZA, pyrazinamide] | – | – | time of peak POA (metabolite) levels after oral dosage [2]: ~6 h; time of peak POA (metabolite) levels after oral dosage ([2]; listed as pyrazinamide): around six
4 | C[C@]1(COc2ccc(N3CCC(Oc4ccc(OC(F)(F)F)cc4)CC3)cc2)Cn2cc([N+](=O)[O-])nc2O1 [OPC67683] | – | activation of PA824 and OPC67683 to NO• by Ddn | –
5 | CC1(COc2ccc(N3CCC(Oc4ccc(OC(F)(F)F)cc4)CC3)cc2)Cn2cc([15N+](=O)[O-])nc2O1 (stereo not drawn) [^15N-nitro-OPC67683] | Ddn mediated production of ^15NO• | – | –
